Reference: US4939177A, “Use of avarol for the control of AIDS and ARC” (Merz + Co. GmbH & Co., priority 1986, dated 1990)
Like-named read-outs stand apart in the source and are kept apart here.

What was measured:
[1] = test system: L5178y mouse lymphoma cells; experiment: L5178y cell growth; type: cell-based; details: 72 hours
Procedure: mouse lymphoma cells were grown in roller tube cultures in Eagle's minimum essential medium, supplemented with 10% horse serum (Muller et al., Cancer Res. 39: 1102-1107; 1979 and Muller et al. Cancer Res. 45: 4822-4826; 1985). […] The cell growth was determined by cell count with a computer supported cell-counter (128-channel counter; Cytocomp, system Michaelis: BIOTRON-Medizinelektronik, Mainz; West Germany). The ED50 (±SD) was estimated by logit regression (L. Sachs, […], Springer-Verlag, Berlin 1984). The mathematical evaluation of the fractional inhibitory concentration indices (FIC indices) of Avarol/Avarone-DDC combinations was performed according to published equations and experimental conditions (Muller et al., Cancer Lett. 1: 127-132; 1976; and Phillips et al., Antimicrob. Agents Chemother. 9: 736-740, 1976). […] In this set of experiments, […] cells were incubated with Avarol in the absence or presence of the established SODase inhibitor DDC.

Lethal dose in rats = details: rat, in vivo; male Sprague-Dawley rats, treatment for 5 days; read-out: 50% lethal dose
Procedure: From previous experiments with NMRI mice, bearing L5178y cells, it is known that the chemotherapeutical dose of avarol is in the range of 1-50 mg/kg at a 50% lethal dose of 269.1 mg/kg (Muller et al., Cancer Res. 45: 4822-4826; 1985). The 50% lethal dose (treatment for 5 days) for male Sprague-Dawley rats was determined to be 235.7 mg/kg. Therefore, daily doses of avarol of 1-30 mg/kg/injection were chosen for the following in vivo studies.

[2] = test system: DTH to sheep red blood cells (SRBC) in NMRI mice; experiment: Delayed-type hypersensitivity to sheep red blood cells; type: in vivo, mouse
Procedure: DTH was produced according to the method of Lagrange et al. (J. Exp. Med. 139: 528-542; 1974) and Liew (Eur. J. Immunol. 7, 714-718; 1977). Male NMRI mice (20-23 g, 10 animals/group) were immunized with 10^8 SRBC/40 μl into one foot pad (day 0). Four days later 10^9 SRBC/40 μl were injected into the other foot pad. After 24 hours, paw size was measured with a dial gauge caliper Odi-Test OOT (H. C. Kroeplin, Schluchtern, Germany). Avarol (in 0.15% [w/v] methylcellulose) was administered daily i.p. either from day -2 to +1 or from day +2 to +4. The level of DTH was expressed as foot pad increase, determined after 24 hrs; and it is given in mm. Non-treated groups were injected i.p. with methylcellulose only. Treated groups were compared with the controls using the U-test of Wilcoxon et al. (Sachs, L. Angewandte Statistik, Springer-Verlag, Berlin; 1984).

[3] = test system: Arthus reaction in Sprague-Dawley rats; experiment: Antibody mediated hypersensitivity (modified active Arthus reaction, ovalbumin); type: in vivo, rat
[4] = Chemical nature and biological activity of radioactive product in rat blood (HPLC; L5178y system); type: in vivo; details: iv, after circulation in the body for 22 hours, read-out: modification to a biologically-inactive form
Procedure: These concentrations were determined on the basis of radioactivity. Moreover, the chemical nature of the radioactive product was identified by high-pressure liquid chromatography and found to consist of over 90% of Avarol. In addition, the biological activity of the compound in the blood was determined after extraction with ethyl acetate and estimated in the L5178y cell system in vitro (Muller, W.E.G. et al.; Comp. Biochem. Physiol. 80C, 47-52; 1985). Using this system, the biological activity of the compound, present in the blood, was determined and converted on a gram basis. Using this approach the concentration in the blood was only 5-15% lower than that determined on the basis of radioactivity.

IgM titer = experiment: Serum IgM titer of SRBC-immunized mice; type: in vivo, mouse; details: 30 mg/kg i.p.
Procedure: (§1) The plaque test of Jerne and Nordin (Science 140: 405-406, 1963) was used with the modification given by Cunningham and Szenberg (Immunolog. 14: 599-601; 1968). Briefly, 8 male NMRI mice per group (20-22 g) were immunized on day 0 by i.p. injection of 5×10^8 SRBC in 0.5 ml saline. Treatment with avarol was done i.p. either from day 0 to day +4 or from day -4 to day 0. One hour after the last drug administration, the animals were killed by a blow on the head and bled. The spleens were removed and a single cell suspension was prepared by teasing the pooled spleens through a 120-μm mesh sieve. After lysing the erythrocytes by 0.15M NH4 Cl, the cells were washed twice in Hank's balanced salt solution containing 29 ml of 7.5% NaHCO3 and 10 ml of 1M HEPES buffer solution per one liter. The cells were resuspended in 2 ml per spleen. Six Cunningham chambers per group were filled with a mixture of 0.5 ml of a suitable dilution of spleen cells (generally 1:100), 0.5 ml of a suspension of SRBC (10^9 /ml) and 125 μl of normal guinea pig complement. After 90-120 min of incubation at 37° C., the number of plaques was counted. Plaques per spleen or per 10^6 spleen cells were calculated.
(§2) The pooled blood of 8 mice was centrifuged to obtain the serum. IgM and IgG titers were measured with the mercaptoethanol method (Hudson, L. and Hay, F. C. Practical Immunology, Blackwell Sci., Oxford; 1983).

IgG titer = experiment: Serum IgG titer of SRBC-immunized mice; type: in vivo, mouse; details: 30 mg/kg i.p., untreated 4
Procedure: as §1, §2

lymphoma cell = details: previous studies; cited from earlier work
normal T-lymphocytes = details: cited from earlier work
male NMRI mice = details: cited from earlier work

CC1=CCC[C@H]2[C@](C)(Cc3cc(O)ccc3O)[C@@H](C)CC[C@]12C [Avarol, 2-[(1R)-1,2,3,4,4a,7,8,8aα-octahydro-1β,2β,4aβ,5-tetramethyl-1-naphthylmethyl]-1,4-benzenediol]
IC50 ([1]; DDC 1.46 μM, read-out: ED50 with coaddition of DDC): 0.27 ± 0.04 µM
IC50 ([1]; DDC 1.71 μM, read-out: ED50 with coaddition of DDC): 0.108 ± 0.015 µM
IC50 ([1]; Mus musculus, L5178Y, cell growth, absence of DDC, read-out: ED50 (the source's name)): 0.94 ± 0.14 µM
LD50 at 120 h (Lethal dose in rats): 236 mg/kg
DTH to SRBC, immunosuppressive influence ([2]; day +2 to +4, doses higher than 10 mg/kg i.p.): weak but significant immunosuppressive effect
DTH to SRBC, immunosuppressive influence ([2]; day -2 to +1, up to daily doses of 30 mg/kg i.p.): no significant immunosuppressive influence
Arthus reaction, in words ([3]; 30 mg/kg, 24 hours and 30 minutes before challenge, P>0.05): weak suppression of the reaction
Arthus reaction, in words ([3]; 3-30 mg/kg i.p., day -1 to +2, day +18 to +21, or immediately before challenge): no significant suppression of the Arthus reaction
metabolised at 22 h [4]: ≤ 15%
Titer IgM (IgM titer; from 0 to +4 days, untreated 256): 256
Titer IgM (IgM titer; from -4 to 0 days, untreated 512): 512
Titer IgG (IgG titer; from 0 to +4 days): 2
Titer IgG (IgG titer; from -4 to 0 days): 4
concentration inhibiting lymphoma cell growth by 50% (lymphoma cell): 0.3 to 0.4 µg/mL
sensitivity of T-cell derived leukemia cells vs normal T- or B-lymphocytes (lymphoma cell): more sensitively inhibited
concentration inhibiting [^3 H] dThd-incorporation rate by 50% (normal T-lymphocytes): 0.5 to 1.3 µg/mL
50% lethal dose (male NMRI mice; NMRI mice, previous experiments): 269.1 mg/kg
Acute toxicity LD10 (male NMRI mice; male NMRI mice, acute): 156.4 mg compound/kg
Subacute toxicity LD10 (male NMRI mice; male NMRI mice, subacute): 138.6 mg compound/kg
Subacute toxicity LD50 (male NMRI mice; male NMRI mice, subacute): 218.4 mg compound/kg
